According to patent US12466829B2, “Spirocyclic piperidine melanocortin subtype-2 receptor (MC2R) antagonists and uses thereof” (Crinetics Pharmaceuticals, Inc., priority 2019, dated 2025):

Molecular target: T1, hMC2 receptor (Homo sapiens, UniProt Q01718)
T1 construct: host or cells: CRE-bla-CHO-K1 cells
Assay: hMC2 membrane binding assay ([125I]ACTH (1-39) Tyr23, SPA)
Details: crude membranes of CRE-bla-CHO-K1 cells expressing hMC2 receptor and hMRAP; 0.2 nM [125I]ACTH (1-39) Tyr23; 1.5 hours at room temperature; read-out: MC2R binding potency
Experimental: Crude membrane fractions are prepared from CRE-bla-CHO-K1 cells stably expressing hMC2 receptor and hMRAP accessory protein (Thermo Fisher). The cells are grown to 85-100% confluence on standard tissue culture dishes in GlutaMax DMEM growth media (Gibco) with following additives: 10% dialyzed FBS (Gemini), 0.1 mM NEAA (Gibco), 25 mM HEPES (Gibco), 5 μg/mL blasticidin (Goldbio), 100 μg/mL zeocin (Invitrogen), 600 μg/mL hygromycin (Goldbio). To prepare membranes, cells are scraped and collected in 1× Dulbecco's phosphate buffered saline (Corning) and then pelleted at 1000 RPM's. The cell pellet is reconstituted in membrane preparation buffer (20 mM HEPES, 6 mM MgCl2 and 1 mM EGTA, protease inhibitor tablets (Pierce) adjusted to pH 7.4), homogenized using a dounce homogenizer, and the resulting membrane fraction is pelleted by centrifugation at 12,000 RPM's. The membrane pellet is resuspended in membrane preparation buffer, snap freezed and stored at −80° C. for later use.
The hMC2 membrane binding assay utilizes the following components: radiolabel [^125I]ACTH (1-39) Tyr23 (PerkinElmer), wheatgerm agglutinin coated PVT SPA beads (PerkinElmer), crude hMC2R membranes, and compounds. Briefly hMC2R membranes are incubated with SPA beads in binding assay buffer (50 mM HEPES, 5 mM MgCl2, 1 mM CaCl2), 0.2% BSA, protease inhibitor tablets (Pierce) adjusted to pH7.4) prior to assay initiation. […] Assay plates are read using a Top Count NXT and Ki values for compounds are determined using a GraphPad Prism 6 non-linear regression analysis.

T1 sequence (Q01718 whole entry): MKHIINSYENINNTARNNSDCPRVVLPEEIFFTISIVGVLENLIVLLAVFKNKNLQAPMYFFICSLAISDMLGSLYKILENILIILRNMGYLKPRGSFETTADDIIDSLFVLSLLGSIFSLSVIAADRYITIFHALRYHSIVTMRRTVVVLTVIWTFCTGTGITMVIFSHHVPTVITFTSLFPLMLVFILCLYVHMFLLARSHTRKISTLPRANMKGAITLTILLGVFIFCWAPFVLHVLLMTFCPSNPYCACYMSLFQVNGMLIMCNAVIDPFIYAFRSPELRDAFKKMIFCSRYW
T1 sequence (Q8TCY5 whole entry partner): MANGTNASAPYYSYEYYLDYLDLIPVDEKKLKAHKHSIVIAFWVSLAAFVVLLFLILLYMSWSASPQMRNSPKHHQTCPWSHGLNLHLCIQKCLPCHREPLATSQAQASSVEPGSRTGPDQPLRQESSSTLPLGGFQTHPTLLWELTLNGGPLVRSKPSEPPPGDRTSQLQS

Compound	Ki [nM]
N#Cc1cc(C(F)(F)F)ccc1N1CCC2(CC1)CN(C(=O)CCN)c1cc(-c3ccccc3CO)ccc12 [1-35, 2-[1-(3-aminopropanoyl)-6-[2-(hydroxymethyl)phenyl]-1,2-dihydrospiro[indole-3,4′-piperidin]-1′-yl]-5-(trifluoromethyl)benzonitrile]	10 to 100
CCOc1ncccc1-c1ccc2c(n1)N([C@@H]1CCNC1)CC21CCN(c2ccc(C(F)(F)F)cc2C#N)CC1 [1-52, 2-[6′-(2-ethoxypyridin-3-yl)-1′-[(3R)-pyrrolidin-3-yl]-1′,2′-dihydrospiro[piperidine-4,3′-pyrrolo[2,3-b]pyridin]-1-yl]-5-(trifluoromethyl)benzonitrile]	< 10
CCOc1ncccc1-c1ccc2c(n1)N(CCN)CC21CCN(c2ccc(C(F)(F)F)cc2C#N)CC1 [1-29, 2-[1′-(2-aminoethyl)-6′-(2-ethoxypyridin-3-yl)-1′,2′-dihydrospiro[piperidine-4,3′-pyrrolo[2,3-b]pyridin]-1-yl]-5-(trifluoromethyl)benzonitrile]	< 10
CCOc1ncccc1-c1ccc2c(n1)N(CCN)C(=O)C21CCN(c2ccc(C(F)(F)F)cc2C#N)CC1 [1-60, 2-[1′-(2-aminoethyl)-6′-(2-ethoxypyridin-3-yl)-2′-oxo-1′,2′-dihydrospiro[piperidine-4,3′-pyrrolo[2,3-b]pyridin]-1-yl]-5-(trifluoromethyl)benzonitrile]	< 10
CCOc1ncccc1-c1ccc2c(c1)N([C@@H]1CCNC1)C(=O)C21CCN(c2ccc(C(F)(F)F)cc2C#N)CC1 [1-18, 2-[6-(2-ethoxypyridin-3-yl)-2-oxo-1-[(3R)-pyrrolidin-3-yl]-1,2-dihydrospiro[indole-3,4′-piperidin]-1′-yl]-5-(trifluoromethyl)benzonitrile]	< 10
CCOc1ncccc1-c1ccc2c(n1)N(C(=O)NCCN)CC21CCN(c2ccc(C(F)(F)F)cc2C#N)CC1 [1-55, N-(2-aminoethyl)-1-[2-cyano-4-(trifluoromethyl)phenyl]-6′-(2-ethoxypyridin-3-yl)-1′,2′-dihydrospiro[piperidine-4,3′-pyrrolo[2,3-b]pyridine]-1′-carboxamide]	< 10
CCOc1ncccc1-c1ccc2c(c1)N(C(=O)N[C@@H]1CCNC1)CC21CCN(c2ccc(C(F)(F)F)cc2C#N)CC1 [1-32, 1′-[2-cyano-4-(trifluoromethyl)phenyl]-6-(2-ethoxypyridin-3-yl)-N-[(3R)-pyrrolidin-3-yl]-1,2-dihydrospiro[indole-3,4′-piperidine]-1-carboxamide]	10 to 100
CCOc1ncccc1-c1ccc2c(c1)N(C(=O)CCN)CC21CCN(c2ccc(F)c(C(F)(F)F)n2)CC1 [1-20, 3-amino-1-[6-(2-ethoxypyridin-3-yl)-1′-[5-fluoro-6-(trifluoromethyl)pyridin-2-yl]-1,2-dihydrospiro[indole-3,4′-piperidin]-1-yl]propan-1-one]	1000 to 10000
CCOc1ccc(N2CCC3(CC2)CN(C(=O)CCN)c2cc(-c4cccnc4OCC)ccc23)c(C(F)(F)F)n1 [1-23, 3-amino-1-{1′-[6-ethoxy-2-(trifluoromethyl)pyridin-3-yl]-6-(2-ethoxypyridin-3-yl)-1,2-dihydrospiro[indole-3,4′-piperidin]-1-yl}propan-1-one]	10 to 100
CCOc1ncccc1-c1ccc2c(n1)N(C(=O)NC[C@H](C)N)CC21CCN(c2ccc(C(F)(F)F)cc2C#N)CC1 [1-56, N-[(2S)-2-aminopropyl]-1-[2-cyano-4-(trifluoromethyl)phenyl]-6′-(2-ethoxypyridin-3-yl)-1′,2′-dihydrospiro[piperidine-4,3′-pyrrolo[2,3-b]pyridine]-1′-carboxamide]	10 to 100
CCOc1ncccc1-c1ccc2c(c1)N(C(=O)CCN)CC21CCN(c2ccc(C(F)(F)F)cc2C#N)CC1 [1-3, 2-[1-(3-aminopropanoyl)-6-(2-ethoxypyridin-3-yl)-1,2-dihydrospiro[indole-3,4′-piperidin]-1′-yl]-5-(trifluoromethyl)benzonitrile]	10 to 100
CCOc1ncccc1-c1ccc2c(n1)N(C(=O)[C@@H]1CCNC1)CC21CCN(c2ccc(C(F)(F)F)cc2C#N)CC1 [1-49, 2-[6′-(2-ethoxypyridin-3-yl)-1′-[(3R)-pyrrolidine-3-carbonyl]-1′,2′-dihydrospiro[piperidine-4,3′-pyrrolo[2,3-b]pyridin]-1-yl]-5-(trifluoromethyl)benzonitrile]	< 10
CCOc1ncccc1-c1ccc2c(c1)N(C(=O)CCN)CC21CCN(c2cc(C#N)cc(C(F)(F)F)c2)CC1 [1-8, 3-[1-(3-aminopropanoyl)-6-(2-ethoxypyridin-3-yl)-1,2-dihydrospiro[indole-3,4′-piperidin]-1′-yl]-5-(trifluoromethyl)benzonitrile]	1000 to 10000
CCOc1ncccc1-c1ccc2c(c1)N(C(=O)CCN)CC21CCN(c2ccc(C(F)(F)F)cc2Cl)CC1 [1-7, 3-amino-1-{1′-[2-chloro-4-(trifluoromethyl)phenyl]-6-(2-ethoxypyridin-3-yl)-1,2-dihydrospiro[indole-3,4′-piperidin]-1-yl}propan-1-one]	10 to 100
CCOc1ncccc1-c1ccc2c(c1)N(S(=O)(=O)CCN)CC21CCN(c2ccc(C(F)(F)F)cc2C#N)CC1 [1-37, 2-[1-(2-aminoethanesulfonyl)-6-(2-ethoxypyridin-3-yl)-1,2-dihydrospiro[indole-3,4′-piperidin]-1′-yl]-5-(trifluoromethyl)benzonitrile]	10 to 100
CCOc1ncccc1-c1ccc2c(c1)N(CCN)C(=O)CC21CCN(c2ccc(C(F)(F)F)cc2C#N)CC1 [1-66, 2-[1′-(2-aminoethyl)-7′-(2-ethoxypyridin-3-yl)-2′-oxo-2′,3′-dihydro-1′H-spiro[piperidine-4,4′-quinolin]-1-yl]-5-(trifluoromethyl)benzonitrile]	10 to 100
CCOc1ncccc1-c1ccc2c(c1)N(C[C@@H](C)N)CC21CCN(c2ccc(C(F)(F)F)cc2C#N)CC1 [1-13, 2-{1-[(2R)-2-aminopropyl]-6-(2-ethoxypyridin-3-yl)-1,2-dihydrospiro[indole-3,4′-piperidin]-1′-yl}-5-(trifluoromethyl)benzonitrile]	< 10
CCOc1ncccc1-c1ccc2c(c1)N(CCN)C(=O)C21CCN(c2ccc(C(F)(F)F)cc2C#N)CC1 [1-16, 2-[1-(2-aminoethyl)-6-(2-ethoxypyridin-3-yl)-2-oxo-1,2-dihydrospiro[indole-3,4′-piperidin]-1′-yl]-5-(trifluoromethyl)benzonitrile]	< 10
CCOc1ncccc1-c1ccc2c(c1)N(C[C@H](C)N)CC21CCN(c2ccc(C(F)(F)F)cc2C#N)CC1 [1-14, 2-{1-[(2S)-2-aminopropyl]-6-(2-ethoxypyridin-3-yl)-1,2-dihydrospiro[indole-3,4′-piperidin]-1′-yl}-5-(trifluoromethyl)benzonitrile]	10 to 100
CCOc1ncccc1-c1ccc2c(c1)N(C[C@H]1CCN1)CC21CCN(c2ccc(C(F)(F)F)cc2C#N)CC1 [1-38, 2-(1-{[(2R)-azetidin-2-yl]methyl}-6-(2-ethoxypyridin-3-yl)-1,2-dihydrospiro[indole-3,4′-piperidin]-1′-yl)-5-(trifluoromethyl)benzonitrile]	10 to 100
CCOc1ncccc1-c1ccc2c(c1)N(C(=O)CCN)CC21CCN(c2ccc(Cl)cc2C#N)CC1 [1-34, 2-[1-(3-aminopropanoyl)-6-(2-ethoxypyridin-3-yl)-1,2-dihydrospiro[indole-3,4′-piperidin]-1′-yl]-5-chlorobenzonitrile]	10 to 100
CCOc1ccccc1-c1ccc2c(c1)N(C(=O)CN)CC21CCN(c2ccc(C(F)(F)F)cc2C#N)CC1 [1-2, 2-[1-(2-aminoacetyl)-6-(2-ethoxyphenyl)-1,2-dihydrospiro[indole-3,4′-piperidin]-1′-yl]-5-(trifluoromethyl)benzonitrile]	10 to 100
CCOc1ncccc1-c1ccc2c(c1)N(C(=O)CCN)CC21CCN(c2cc(C(F)(F)F)cc(C#N)n2)CC1 [1-24, 6-[1-(3-aminopropanoyl)-6-(2-ethoxypyridin-3-yl)-1,2-dihydrospiro[indole-3,4′-piperidin]-1′-yl]-4-(trifluoromethyl)pyridine-2-carbonitrile]	1000 to 10000
